According to patent publication US8575376B2, “Steroide anionic compounds, method of their production, usage and pharmaceutical preparation involving them” (Ustav Organicke Chemie A Biochemie Akademie Ved Ceske …, priority 2009, dated 2013):

Assays:
[1] = tested on: mice (ICR); test: Depression-like behavior induced by repeated social defeat, open field; assay type: in vivo, mouse; settings: 1 and 10 mg/kg orally, 30 min prior
Procedure: Naive adult male mice (albino out-bred strain ICR, VELAZ s.r.o., Prague, Czech Republic, 30-37 g) were used in this study. Food and water were available ad libitum. Mice were housed either individually without any handling in self-cleaning cages with a grid floor (8×6×13 cm) or in groups of 17-20 in standard plastic cages (38×22×14 cm) with the floors covered with wooden shavings. After 3 weeks, each individually housed mouse was allowed 30 min adaptation in a Plexiglas neutral observation cage (20×20×30 cm) with clean wooden shavings before it was coupled with a group-housed male partner for 4 min/day. […] Animals were housed, and behavioural testing was performed in a different room during the light phase of the constant light-dark cycle with lights on at 6:00 and off at 18:00 h. Temperature was maintained at 21° C., and relative humidity was 50%. The mice were not handled except on the experimental days.
Group-housed males were used for the experiment. […] Over a 3-min testing period, the distance traveled, as a marker of locomotor/exploratory behaviour, in the open field was measured. […] Thirty minutes following the drug administration, the animal was placed into the open field arena and distance traveled was measured, as described before. […]

[2] = tested on: rats; test: Open-field locomotion in MK-801 animal model of schizophrenia; assay type: in vivo, rat
Procedure: The effect of the compound from example 9 in doses of 0.1 mg/kg and 1 mg/kg on locomotor activity in open field test was evaluated. Locomotor activity expressed as a total distance travelled during 30 min exploration of a box (68×68×30 cm) located in a sound proof room was measured using a video tracking system for automation of the behavioural experiments (Noldus, EthoVision, Version 2.1.).

[3] = tested on: rats; test: Active allothetic place avoidance (AAPA) task, compound applied alone; assay type: in vivo, rat; settings: Example 9 1 and 10 mg/kg s.c., dizocilpine 0.1-0.3 mg/kg i.p.
Procedure: The effect of compound from Example 9 on cognitive behaviors and locomotion was assessed using active allothetic place avoidance (AAPA) task, which requires intact hippocampi and ability of animals to navigate in space using distinct reference frames (spatial navigation and “cognitive coordination”) (Wesierska et al., 2005) and it also allows measuring changes in the accompanying locomotor activity. AAPA task training involves animals trained to move over a slowly rotating uniform circular arena, on which a prohibited sector is defined, entering which is punished by a mild footshock. A shock sector and its position can be determined solely by its relationship to distal orienting cues in the room (Stuchlik et al., 2008).
This task is highly dependent upon hippocampal formation, with unilateral reversible ablation of this structure with TTX leading to avoidance deficit (Cimadevilla et al., 2001). Animals solving this task should walk in a direction opposite to arena rotation; otherwise it would be repeatedly brought to a fixed sector by arena rotation. We conducted 4 acquisition session of AAPA task, during which the sector location was always reinforced and remained stable throughout the training. Each session lasted 20 min.
Control animals obtained saline intraperitoneally (i.p.) whilst experimental groups received subcutaneous (s.c.) injections of the compound from Example 9 at doses 1 mg/kg and 10 mg/kg (dissolved in cyclodextrin). Solution of compound from Example 9 (1 mg/2 ml or 10 mg/2 ml in cyclodextrin) was applied s.c. at a volume 2 ml/kg of body weight (b.w.). Intraperitonal application of dizocilpine (a non-competitive NMDA receptor antagonist; showing significant neuroprotective activity but exerting cognition-disturbing and psychotomimetic effects) was used as a positive control. Dizocilpine was applied at doses 0.1 mg/kg, 0.2 mg/kg and 0.3 mg/kg. It is worth noting that dizocilpine (albeit its experimental neuroprotective activity) is often used to model schizophrenia-like behaviors in […] and it has been repeatedly shown to exert a dose-dependent learning deficit and hyperlocomotion.

For CC(=O)[C@H]1CC[C@H]2[C@@H]3CC[C@@H]4C[C@H](OC(=O)[C@@H](N)CCC(=O)O)CC[C@]4(C)[C@H]3CC[C@]12C [Example 9, 20-Oxo-5β-pregnan-3α-yl L-glutamyl 1-ester], the “hypolocomotion in open field after repeated social defeat” value [1] was “reduced a hypolocomotion in an open field induced by agonistic interactions in mice”, the “hyperlocomotion induced by MK-801 in open field” value ([2]; Example 9 0.1 or 1 mg/kg + MK-801 0.1 mg/kg) was “has not effect on hyperlocomotion state induced by MK-801” and the “locomotion in open field (total distance, 30 min)” value ([2]; substance alone, Example 9 0.1 and 1 mg/kg, MK-801 0.1 mg/kg) was “did not produce locomotor alterations in the open-field test”. For the same molecule, the “maximum time avoided in AAPA” value [3] was “did not significantly impaired cognitive performance compared to control animals”, the “number of entrances into shock sector in AAPA” value [3] was “neither of doses of compound from Example 9 caused worsening in this parameter” and the “total distance traveled in AAPA (locomotor activity)” value ([3]; 20-min sessions) was “failed to exhibit either decrease or increase in total distance compared to controls”.
